From PubChem BioAssay (NCI)
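Dose response: 5 concentrations. Exposure: 48 h. Format: 96-well plates. Endpoint: linear interpolation; highest concentration if not reached. TGI marks complete inhibition of growth.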

Legend:
Assay in all cases: NCI-60 cell line screen, 48 h
SNB-75 CNS = system: SNB-75 CNS
DU-145 prostate = system: DU-145 prostate
SW-620 colon = system: SW-620 colon
MDA-MB-231 breast = system: MDA-MB-231 breast
MDA-N = system: MDA-N
HOP-62 NSCLC = system: HOP-62 NSCLC
NCI-H226 lung = system: NCI-H226 lung
SR leukemia = system: SR leukemia
NCI-H23 lung = system: NCI-H23 lung
MALME-3M melanoma = system: MALME-3M melanoma
CCRF-CEM leukemia = system: CCRF-CEM leukemia
OVCAR-8 ovarian = system: OVCAR-8 ovarian
A498 renal = system: A498 renal
OVCAR-3 ovarian = system: OVCAR-3 ovarian
TK-10 renal = system: TK-10 renal
HS 578T breast = system: HS 578T breast
SK-MEL-2 melanoma = system: SK-MEL-2 melanoma
HT29 colon = system: HT29 colon
SNB-19 CNS = system: SNB-19 CNS
RPMI-8226 leukemia = system: RPMI-8226 leukemia
HCT-116 colon = system: HCT-116 colon
EKVX NSCLC = system: EKVX NSCLC
SK-MEL-5 melanoma = system: SK-MEL-5 melanoma
HCC-2998 colon = system: HCC-2998 colon
PC-3 prostate = system: PC-3 prostate
HCT-15 colon = system: HCT-15 colon
UACC-62 melanoma = system: UACC-62 melanoma
HL-60(TB) leukemia = system: HL-60(TB) leukemia
OVCAR-5 ovarian = system: OVCAR-5 ovarian
IGROV1 ovarian = system: IGROV1 ovarian
A549 NSCLC = system: A549 NSCLC
ACHN renal = system: ACHN renal
RXF 393 renal = system: RXF 393 renal
SF-295 CNS = system: SF-295 CNS
MOLT-4 leukemia = system: MOLT-4 leukemia
KM12 colon = system: KM12 colon
MCF7 breast = system: MCF7 breast
SF-268 CNS = system: SF-268 CNS
NCI-H460 lung = system: NCI-H460 lung
786-0 renal = system: 786-0 renal
U251 CNS = system: U251 CNS
SK-MEL-28 melanoma = system: SK-MEL-28 melanoma
UACC-257 melanoma = system: UACC-257 melanoma
SF-539 CNS = system: SF-539 CNS
COLO 205 colon = system: COLO 205 colon
UO-31 renal = system: UO-31 renal
K-562 leukemia = system: K-562 leukemia
HOP-92 NSCLC = system: HOP-92 NSCLC
MDA-MB-435 = system: MDA-MB-435
M14 melanoma = system: M14 melanoma
LOX IMVI melanoma = system: LOX IMVI melanoma
NCI/ADR-RES ovarian = system: NCI/ADR-RES ovarian
NCI-H522 lung = system: NCI-H522 lung
T-47D breast = system: T-47D breast

Measured: TGI

O=C(O)CCC(NC(=O)c1ccc(Nc2nc3cc(C(F)(F)F)ccc3nc2C(=O)O)cc1)C(=O)O (centres undefined)
> 100 µM: SNB-75 CNS | DU-145 prostate | SW-620 colon | MDA-MB-231 breast | MDA-N | HOP-62 NSCLC | NCI-H226 lung | SR leukemia | NCI-H23 lung | MALME-3M melanoma | CCRF-CEM leukemia | OVCAR-8 ovarian | A498 renal | OVCAR-3 ovarian | TK-10 renal | HS 578T breast | SK-MEL-2 melanoma | HT29 colon | SNB-19 CNS | RPMI-8226 leukemia | HCT-116 colon | EKVX NSCLC | SK-MEL-5 melanoma | HCC-2998 colon | PC-3 prostate | HCT-15 colon | UACC-62 melanoma | HL-60(TB) leukemia | OVCAR-5 ovarian | IGROV1 ovarian | A549 NSCLC | ACHN renal | RXF 393 renal | SF-295 CNS | MOLT-4 leukemia | KM12 colon | MCF7 breast | SF-268 CNS | NCI-H460 lung | 786-0 renal | U251 CNS | SK-MEL-28 melanoma | UACC-257 melanoma | SF-539 CNS | COLO 205 colon | UO-31 renal | K-562 leukemia | HOP-92 NSCLC | MDA-MB-435 | M14 melanoma | LOX IMVI melanoma | NCI/ADR-RES ovarian | NCI-H522 lung | T-47D breast
